Data from US10220046B2, “Compositions and methods for disease treatment using nanoparticle delivered compounds” (THE REGENTS OF THE UNIVERSITY OF MICHIGAN, priority 2014, dated 2019).
Non-standard residues stand in square brackets, D forms with d. No end group written: not given here.

Key:
[1] = sHDL nanoparticle formation and loading with additional anticancer agents; type: physicochemical; conditions: agent in place of WGA-TA
Description: The composition as described in Example was made with various anticancer agents in place of WGA-TA.

LCAT = target: T1, LCAT (Homo sapiens, UniProt P04180); conditions: cited from earlier work
T1 sequence (P04180 25-440): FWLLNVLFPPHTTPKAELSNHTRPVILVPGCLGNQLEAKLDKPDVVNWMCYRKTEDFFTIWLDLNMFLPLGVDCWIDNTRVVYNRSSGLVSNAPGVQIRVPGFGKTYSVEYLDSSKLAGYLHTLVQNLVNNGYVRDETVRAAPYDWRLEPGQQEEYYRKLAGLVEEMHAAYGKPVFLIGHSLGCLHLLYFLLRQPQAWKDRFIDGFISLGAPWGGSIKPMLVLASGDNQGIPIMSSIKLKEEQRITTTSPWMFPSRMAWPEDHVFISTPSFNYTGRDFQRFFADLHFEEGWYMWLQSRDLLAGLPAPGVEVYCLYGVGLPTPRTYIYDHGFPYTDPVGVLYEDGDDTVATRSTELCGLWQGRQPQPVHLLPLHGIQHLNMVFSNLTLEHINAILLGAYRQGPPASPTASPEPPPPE

[2] = tested on: cortisol production of NCI-H295R cells; experiment: Cortisol immunoassay of culture supernatant; type: cell-based, human; conditions: 24 h
Method: The cortisol immunoassay (Alpco, Salem, N.H.) was used to quantitate cortisol levels in the culture supernatant of steroid producing NCI-H295R cells after treatment with drug combinations (same as in clonogic assay) for 24 h per the manufacturer instructions. Briefly, culture supernatant after treatment was added to the antibody coated-plates containing assay buffer (45 minutes at 25° C.). After washing, tetra methyl benzidine (TMB) substrate was incubated at RT and absorbance measured using a Synergy Neo reader (BioTek, Winooski, Vt.).

[3] = tested on: genes involved in steroidogenesis in NCI-H295R cells; experiment: Real time RT-PCR of genes involved in steroidogenesis; type: cell-based, human; conditions: combination with sHDL compared to monotherapy, 24 h; decreased for P and M, increased for E
Method: RNA from the NCI-H295R cells after drug treatment for 24 h was prepared using Qiagen RNA isolation kit (Qiagen Sciences, Valencia, Calif.). Approximately 500 ng of RNA was reverse transcribed using superscript RT kit from Life Technologies (Grand Island, N.Y.). qPCR was performed in a step-one RT PCR machine using the gene specific primer sets (Table 3) as published (11). Relative gene expression levels were calculated after normalization with internal control.

SW13 cells [4] = experiment: Mitochondrial membrane potential (TMRE); type: cell-based, human; conditions: combination with sHDL vs. drug alone, 24 h
Method: (§1) SW13 and NCI-H295R were seeded in a 96 well black wall plate. Once attached, they were treated with the drugs as described above. 24 h post drug treatment, 500 nM tetramethylrhodamine, ethyl ester (TMRE) was added and the cells were incubated for 20 minutes at 37° C. and the fluorescent signal was measured after washing using a microplate reader (excitation=549, emission=575). 100 nM FCCP (carbonyl cyanide 4-(trifluoromethoxy)phenylhydrazone) was added to cells 10 minutes before the addition of TMRE as a negative control.

NCI-H295R cells [5] = experiment: Mitochondrial membrane potential (TMRE); type: cell-based, human; conditions: combination with sHDL vs. drug alone, 24 h
Method: as §1

SW13 cells [6] = experiment: Apoptosis by flow cytometry (annexin V-FITC/propidium iodide); type: cell-based, human; conditions: combined with sHDL vs. drug alone, 24 h
Method: (§2) Following treatment, cells were washed, re-suspended in annexin binding buffer and stained using annexin V-FITC/Propidium iodide as previously described (Subramanian et al., World J. Surg., 2014, 38(6): 1343-52). Induction of apoptosis was measured using the CyAn ADP Analyzer (Beckman Coulter, Inc., Indianapolis, Ind.).

NCI-H295R cells [7] = experiment: as above; type: cell-based, human; conditions: combination with sHDL vs. drug alone, 24 h
Method: as §2

NCI-H295R MCAs = experiment: Three dimensional multicellular aggregate (MCA) treatment; type: cell-based, human; conditions: in combination with 50 μg/ml sHDL, 24 h
Description: (§3) To evaluate the translational potential of the combination therapy, three-dimensional multicellular aggregates were developed to mimic the in vivo tumor model as described by Jain et al. (Jain et al., Endocrine-related cancer. 2013 June; 20(3):361-70, herein incorporated by reference in its entirety). […] Untreated, sHDL alone treated cells served as controls. The MCAs were photographed before and after treatment and the MCAs were quantified by Image J software (NIH) as described by Jain et al.

SW13 MCAs = experiment: as above; type: cell-based, human; conditions: in combination with 50 μg/ml sHDL, 24 h
Description: as §3

[8] = tested on: adrenocortical carcinoma (ACC); conditions: advanced ACC patients; cited from earlier work
SW13 and NCI-H295R cells = experiment: Cell viability assay (CellTiter-Glo) and combination index; type: cell-based, human
Method: Serial dilutions were made from the starting concentrations and viability of cells was then measured based on quantification of the ATP levels after treatment with CellTiter-Glo luminescent assay reagent as per the manufacturer's instruction (Promega, Madison, Wis.) with luminescence quantified using a BioTek Synergy Neo plate reader (BioTek, Winooski, Vt.). […] For all cell-based experiments, the experimental control group was defined, unless stated otherwise, as untreated cells or cells treated with single drug alone (when comparing to combination regimens).

SW13 cells [9] = experiment: Colony formation assay; type: cell-based, human; conditions: clonogenic assay, 24 h treatment, with 50 μg/ml sHDL
Method: (§4) NCI-H295R and SW13 cells were plated in 6-well plates and allowed to attach. […] The medium was changed and surviving cells allowed to grow colonies of 50 cells or more for two weeks, then washed, fixed, and stained with coomassie blue and counted. Total colony numbers were normalized to untreated controls.

NCI-H295R cells [10] = experiment: Colony formation assay; type: cell-based, human; conditions: clonogenic assay, 24 h treatment, with 50 μg/ml sHDL
Method: as §4

[11] = Metabolite analysis in mouse plasma by LC-MS/MS; type: in vivo, CD-1 white mice; conditions: IV 4 mg/kg WGA-TA in dextran formulation, 30 minutes after administration
Method: CD-1 white mice were given an IV dosage of 4 mg/kg WGA-TA in dextran formulation. Samples of blood was collected at different time points in heparin treated tubes and the plasma collected after centrifugation at 13,000 rpm for 10 min and was frozen at −80° C. for later analysis. For the evaluation of metabolites, 300 uL of ice-cold acetonitrile was added to 100 uL of the mouse plasma and then centrifuged at 4° C. in 15000 rpm for 10 minutes. The top supernatant was dried under a stream of nitrogen gas. The residue was finally reconstituted in a 100 uL solution of 20% acetonitrile (80% water). Blank plasma needed for the control was prepared from untreated CD-1 white mice blood as above. As a negative control, blank plasma spiked with WGA-TA before extraction was used. The LC-MS/MS analysis was conducted using a Shimadzu HPLC system coupled with an API 4500 mass spectrometer (Applied Biosystems, MDS Sciex Toronto, Canada), equipped with an API electrospray ionization (ESI) source. Enhanced MS, product ion-scan, and MRM scan were used as a survey scan to identify metabolites of WGA-TA. Information dependent acquisition (IDA) was used to collect fragmentation of metabolite candidates or single experiment of enhanced product ion scan was applied to acquire fragmentation of metabolites after running survey scan. […]

**Q.** For `CC(=O)O[C@@]12CO[C@@H]1C[C@H](O)[C@@]1(C)C(=O)[C@H](O)C3=C(C)[C@@H](OC(=O)[C@H](O)[C@@H](NC(=O)OC(C)(C)C)c4ccccc4)C[C@@](O)([C@@H](OC(=O)c4ccccc4)[C@H]21)C3(C)C` [docetaxel], which “nanoparticle formation and loading in sHDL” value [1] is on record?
**A.** Successful nanoparticle formation and loading

**Q.** Which “LCAT activation as compared with native ApoA-I” value (LCAT) does the source give for “PVLELFENLLERLLDALQKKLK (listed as Homo sapiens) [SEQ ID NO:2, ApoA-I agonist peptide]” here?
**A.** 86%

**Q.** Which “decrease of cortisol production levels” value ([2]; drug alone vs. controls) does the source give for `N.N.[Cl][Pt][Cl]` [cisplatin] here?
**A.** 8.39%

**Q.** What about the “decrease of cortisol production levels” value ([2]; in combination with sHDL) of the same compound?
**A.** 82%

**Q.** What about the HSD3B2 level [3] of the same compound?
**A.** 0.1 fold change

**Q.** What about the “reduction in mitochondrial potential ΔΨ” value (SW13 cells [4]) of the same compound?
**A.** 6.5%

**Q.** And the “reduction in mitochondrial potential ΔΨ” value (NCI-H295R cells [5])?
**A.** 13.09%

**Q.** What about the “increase of necrotic cell death” value (SW13 cells [6]) of the same compound?
**A.** 14.71%

**Q.** What about the “increase in the percentage of apoptotic cells (early and late)” value (NCI-H295R cells [7]) of the same compound?
**A.** 6.16%

**Q.** And the “reduction in MCAs” value (NCI-H295R MCAs)?
**A.** Approximately 20%

**Q.** And the “reduction in MCAs” value (SW13 MCAs)?
**A.** approximately 50%

**Q.** For `Clc1ccc(C(c2ccccc2Cl)C(Cl)Cl)cc1` (stereo not shown) [mitotane], which “decrease of cortisol production levels” value ([2]; drug alone vs. controls) is on record?
**A.** 84.7%

**Q.** What about the “decrease of cortisol production levels” value ([2]; in combination with sHDL) of the same compound?
**A.** not significantly different

**Q.** What about the “improvement in survival rate” value [8] of the same compound?
**A.** 14-50 months

**Q.** What about the initial response rates [8] of the same compound?
**A.** 20-30%

**Q.** And the IC50 value (SW13 and NCI-H295R cells; SW13 cells compared to NCI-H295R cells)?
**A.** higher IC50 value

**Q.** And the HSD3B2 level [3]?
**A.** 0.2 fold change

**Q.** And the “reduction in mitochondrial potential ΔΨ” value (SW13 cells [4])?
**A.** 19.8%

**Q.** What about the “reduction in mitochondrial potential ΔΨ” value (NCI-H295R cells [5]) of the same compound?
**A.** 14.49%

**Q.** And the “increase of apoptotic cell death” value (SW13 cells [6])?
**A.** 11.9%

**Q.** And the “increase in the percentage of apoptotic cells (early and late)” value (NCI-H295R cells [7])?
**A.** 36.01%

**Q.** And the “higher reduction in viability, combination compared to single drug alone” value (SW13 cells [9])?
**A.** 22.3%

**Q.** And the “higher reduction in viability, combination compared to single drug alone” value (NCI-H295R cells [10])?
**A.** 39.1%

**Q.** What about the “reduction in MCAs” value (NCI-H295R MCAs) of the same compound?
**A.** ~30%

**Q.** And the “reduction in MCAs” value (SW13 MCAs)?
**A.** approximately 50%

**Q.** Which “LCAT activation as compared with native ApoA-I” value (LCAT) does the source give for “Ac-PVLDEFREKLNEELEALKQKLK-NH2 [consensus 22-mer]” here?
**A.** 10%

**Q.** Which “metabolic identification in plasma” value [11] does the source give for `CC(=O)OCC1=C(C)C[C@H]([C@@H](C)C2CC[C@H]3[C@@H]4C[C@H]5O[C@]56[C@@H](OC(C)=O)C=CC(=O)[C@]6(COC(C)=O)[C@H]4CC[C@]23C)OC1=O` (stereo partly shown) [WGA-TA, 4, 19, 27-triacetyl withalongolide A] here?
**A.** three deacetylation products

**Q.** For `CC[C@@]1(O)C(=O)OCc2c1cc1n(c2=O)Cc2cc3cc(O)ccc3nc2-1` [10-hydroxy camptothecin], which “nanoparticle formation and loading in sHDL” value [1] is on record?
**A.** Successful nanoparticle formation and loading

**Q.** With `COc1cccc2c1C(=O)c1c(O)c3c(c(O)c1C2=O)C[C@@](O)(C(=O)CO)C[C@@H]3O[C@H]1C[C@H](N)[C@H](O)[C@H](C)O1` [doxorubicin] as the compound, how does the “combination index (CI)” value (SW13 and NCI-H295R cells; combined with sHDL nanoparticles (25 and 50 μg/ml), Chou-Talalay, 72 h) read?
**A.** > 1

**Q.** Which “nanoparticle formation and loading in sHDL” value [1] does the source give for `O=NN(CCCl)C(=O)NC1CCCCC1` [CCNU, lomustine] here?
**A.** Successful nanoparticle formation and loading

**Q.** What does the source list for `COc1cc([C@@H]2c3cc4c(cc3[C@@H](O[C@@H]3O[C@@H]5CO[C@@H](C)O[C@H]5[C@H](O)[C@H]3O)[C@H]3COC(=O)[C@H]23)OCO4)cc(OC)c1O` [etoposide]?
**A.** decrease of cortisol production levels ([2]; drug alone vs. controls): 82.1%; decrease of cortisol production levels ([2]; in combination with sHDL): not significantly different; HSD3B2 level [3]: 2.1 fold change; reduction in mitochondrial potential ΔΨ (SW13 cells [4]): 31.54%; reduction in mitochondrial potential ΔΨ (NCI-H295R cells [5]): 9.2%; increase of necrotic cell death (SW13 cells [6]): 21.33%; increase in the percentage of apoptotic cells (early and late) (NCI-H295R cells [7]): 36.46%; higher reduction in viability, combination compared to single drug alone (SW13 cells [9]): 39.52%; higher reduction in viability, combination compared to single drug alone (NCI-H295R cells [10]): 44.6%; reduction in MCAs (NCI-H295R MCAs): approximately 50%; reduction in MCAs (SW13 MCAs): ~25%

**Q.** Which “nanoparticle formation and loading in sHDL” value [1] does the source give for `CC(=O)O[C@H]1C(=O)[C@@]2(C)[C@H]([C@H](OC(=O)c3ccccc3)[C@]3(O)C[C@H](OC(=O)[C@H](O)[C@@H](NC(=O)c4ccccc4)c4ccccc4)C(C)=C1C3(C)C)[C@]1(OC(C)=O)CO[C@@H]1C[C@@H]2O` [paclitaxel] here?
**A.** Successful nanoparticle formation and loading

**Q.** With “pVLELFENLLERLLDALQKKLK ([dP]VLELFENLLERLLDALQKKLK) [SEQ ID NO:3, ApoA-I agonist peptide with D-Pro at X1]” as the compound, how does the “LCAT activation as compared with native ApoA-I” value (LCAT) read?
**A.** 111%
